Legend:
Type in all cases: cell-based
[1] = biological target: EP4 subtype of the human PGE2 receptor (Homo sapiens, UniProt P35408); assay: cAMP antagonism test on the human EP4 receptor (HTRF cAMP detection); conditions: selectivity towards hEP4, IC50 measured by cAMP antagonism test
Outline: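 Cells expressing human EP4 preincubated 20 min at RT with compound (0.8 nM–16.5 μM), then stimulated with PGE2 (0.3 nM in 3× solution, with IBMX) 60 min at RT. After lysis, cAMP measured by HTRF competition (665/620 nm ratio); antagonism seen as rise in FRET signal.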

human PGD receptor = biological target: T1, human PGD receptor (Homo sapiens, UniProt Q13258); assay: cAMP antagonism test on the human prostaglandin D receptor (HTRF cAMP detection); conditions: selectivity towards hDP, IC50 measured by cAMP antagonism test
T1 sequence (Q13258 1-359): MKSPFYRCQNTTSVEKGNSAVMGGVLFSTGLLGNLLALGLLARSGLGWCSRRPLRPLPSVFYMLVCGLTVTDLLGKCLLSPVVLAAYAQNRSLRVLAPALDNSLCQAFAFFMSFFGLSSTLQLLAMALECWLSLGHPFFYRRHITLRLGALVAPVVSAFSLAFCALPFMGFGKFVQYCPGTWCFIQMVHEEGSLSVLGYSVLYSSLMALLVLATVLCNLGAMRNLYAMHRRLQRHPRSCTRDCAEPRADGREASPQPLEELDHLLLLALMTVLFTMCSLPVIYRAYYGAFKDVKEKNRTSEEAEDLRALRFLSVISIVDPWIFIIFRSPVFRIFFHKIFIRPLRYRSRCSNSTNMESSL
Outline: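 Cells pre-mixed with cAMP-d2 were preincubated with compound (0.8 nM–16.5 μM) for 20 min at RT, then stimulated with 3× PGD2 solution (6 nM, in PBS-IBMX) for 30 min at RT. After lysis (20 min), HTRF read at 665/620 nm; antagonism seen as rise in FRET ratio.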

[2] = biological target: EP2 subtype of the human PGE2 receptor (Homo sapiens, UniProt P43116); assay: cAMP antagonism test on the human EP2 receptor (HTRF cAMP detection); conditions: hEP2 receptor, read-out: Antagonism hEP2 IC50
Outline: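 Cells expressing human EP2 preincubated 20 min at RT with compound (0.8 nM–16.5 μM), then stimulated 60 min with PGE2 (3× solution 1.5 nM) in PBS-IBMX. After 20 min lysis, cAMP measured by competitive HTRF with cAMP-d2 and Eu cryptate anti-cAMP antibody (665/620 nm ratio).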

EP4 subtype of the human PGE2 receptor, sequence (P35408 whole entry): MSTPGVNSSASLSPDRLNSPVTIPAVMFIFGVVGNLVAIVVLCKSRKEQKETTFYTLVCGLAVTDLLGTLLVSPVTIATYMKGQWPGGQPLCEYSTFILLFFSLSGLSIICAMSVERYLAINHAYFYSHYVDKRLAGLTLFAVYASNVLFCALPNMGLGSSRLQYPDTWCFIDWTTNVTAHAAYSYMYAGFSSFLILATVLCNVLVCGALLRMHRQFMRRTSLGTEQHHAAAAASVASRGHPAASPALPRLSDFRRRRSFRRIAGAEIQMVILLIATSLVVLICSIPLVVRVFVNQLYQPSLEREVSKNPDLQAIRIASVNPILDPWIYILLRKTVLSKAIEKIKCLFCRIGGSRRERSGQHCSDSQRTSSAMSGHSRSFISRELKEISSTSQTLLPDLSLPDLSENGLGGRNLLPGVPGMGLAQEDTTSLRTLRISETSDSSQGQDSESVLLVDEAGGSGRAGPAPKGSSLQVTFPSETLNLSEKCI
EP2 subtype of the human PGE2 receptor, sequence (P43116 whole entry): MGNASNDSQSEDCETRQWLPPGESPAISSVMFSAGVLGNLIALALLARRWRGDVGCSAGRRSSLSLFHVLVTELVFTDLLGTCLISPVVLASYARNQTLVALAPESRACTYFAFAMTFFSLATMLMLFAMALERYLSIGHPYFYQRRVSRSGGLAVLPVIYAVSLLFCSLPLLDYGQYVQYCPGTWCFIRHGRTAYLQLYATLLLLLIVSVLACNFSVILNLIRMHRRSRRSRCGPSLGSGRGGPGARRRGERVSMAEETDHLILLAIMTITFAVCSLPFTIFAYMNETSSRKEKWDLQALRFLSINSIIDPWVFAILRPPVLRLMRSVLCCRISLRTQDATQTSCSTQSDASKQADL

Selectivity hEP2/hEP4 [1]	Selectivity hEP2/hDP (human PGD receptor)	IC50 [2] [nM]	SMILES
xxx (xxx > 100)	xxx (xxx > 100)	109	COc1c(C(=O)NCCN2CCOCC2)ccc2nn(CC3CN(C(=O)c4ccc(Cl)cc4)C3)cc12 [Example 258, 2-{[1-(4-chlorobenzoyl)azetidin-3-yl]methyl}-4-methoxy-N-(2-morpholinoethyl)-2H-indazol-5-carboxamide]
xxx (xxx > 100)	xxx (xxx > 100)	25.6	CCOCCNC(=O)c1ccc2nn(CC3CN(C(=O)c4ccc(Cl)cc4)C3)cc2c1OC [Example 259, 2-{[1-(4-chlorobenzoyl)azetidin-3-yl]methyl}-N-(2-ethoxyethyl)-4-methoxy-2H-indazol-5-carboxamide]
xxx (xxx > 100)	xxx (xxx > 100)	8.02	COc1c(C(=O)NCCN2CCC(F)(F)C2)ccc2nn(CC3CN(C(=O)c4ccc(Cl)cc4)C3)cc12 [Example 260, 2-{[1-(4-chlorobenzoyl)azetidin-3-yl]methyl}-N-[2-(3,3-difluoropyrrolidin-1-yl)ethyl]-4-methoxy-2H-indazol-5-carboxamide]
xxx (xxx > 100)	xxx (xxx > 100)	81	COc1c(C(=O)NCCN2CCOCC2)ccc2nn(CC3CCN(C(=O)c4ccc(Cl)cc4)CC3)cc12 [Example 261, 2-{[1-(4-chlorobenzoyl)piperidin-4-yl]methyl}-4-methoxy-N-(2-morpholinoethyl)-2H-indazol-5-carboxamide]
xxx (xxx > 100)	xxx (xxx > 100)	33.4	COCCNC(=O)c1ccc2nn(CC3CCN(C(=O)c4ccc(Cl)cc4)CC3)cc2c1OC [Example 262, 2-{[1-(4-chlorobenzoyl)piperidin-4-yl]methyl}-4-methoxy-N-(2-methoxyethyl)-2H-indazol-5-carboxamide]
xx (xx: 10-100)	xx (xx: 10-100)	181	COc1c(C(=O)NCC(F)(F)F)ccc2nn(CC3CCN(C(=O)c4ccc(Cl)cc4)CC3)cc12 [Example 263, 2-{[1-(4-chlorobenzoyl)piperidin-4-yl]methyl}-4-methoxy-N-(2,2,2-trifluoro-ethyl)-2H-indazol-5-carboxamide]
xxx (xxx > 100)	xxx (xxx > 100)	13.7	CCOCCNC(=O)c1ccc2nn(CC3CCN(C(=O)c4ccc(Cl)cc4)CC3)cc2c1OC [Example 264, 2-{[1-(4-chlorobenzoyl)piperidin-4-yl]methyl}-N-(2-ethoxyethyl)-4-methoxy-2H-indazol-5-carboxamide]
xxx (xxx > 100)	xxx (xxx > 100)	31.5	COc1c(C(=O)NCCSC(F)(F)F)ccc2nn(CC3CCN(C(=O)c4ccc(Cl)cc4)CC3)cc12 [Example 265, 2-{[1-(4-chlorobenzoyl)piperidin-4-yl]methyl}-4-methoxy-N-{2-[(trifluoromethyl)sulphanyl]ethyl}-2H-indazol-5-carboxamide]
xxx (xxx > 100)	xxx (xxx > 100)	18.9	COCCNC(=O)c1ccc2nn(CC3CCN(C(=O)c4ccc(OC(F)(F)F)cc4)CC3)cc2c1OC [Example 266, 4-methoxy-N-(2-methoxyethyl)-2-({1-[4-(trifluoromethoxy)benzoyl]piperidin-4-yl}methyl)-2H-indazol-5-carboxamide]
xxx (xxx > 100)	xxx (xxx > 100)	45.5	COCCNC(=O)c1ccc2nn(CC3CCN(C(=O)c4ccc(C(F)(F)F)cc4F)CC3)cc2c1OC [Example 267, 2-({1-[2-fluoro-4-(trifluoromethyl)benzoyl]piperidin-4-yl}methyl)-4-methoxy-N-(2-methoxyethyl)-2H-indazol-5-carboxamide]
xxx (xxx > 100)	xxx (xxx > 100)	22.9	COCCNC(=O)c1ccc2nn(CC3CCN(C(=O)c4ccc(S(F)(F)(F)(F)F)cc4)CC3)cc2c1OC [Example 268, 4-methoxy-N-(2-methoxyethyl)-2-({1-[4-(pentafluoro-λ^6-sulphanyl)benzoyl]-piperidin-4-yl}methyl)-2H-indazol-5-carboxamide]
xxx (xxx > 100)	xxx (xxx > 100)	7.54	COCCNC(=O)c1ccc2nn(CC3CCN(C(=O)c4ccc(SC(F)(F)F)cc4)CC3)cc2c1OC [Example 269, 4-methoxy-N-(2-methoxyethyl)-2-[(1-{4-[(trifluoromethyl)sulphanyl]benzoyl}-piperidin-4-yl)methyl]-2H-indazol-5-carboxamide]
xxx (xxx > 100)	xxx (xxx > 100)	53.1	COCCNC(=O)c1ccc2nn(CC3CCN(C(=O)c4ccc(Cl)c(C(F)(F)F)c4)CC3)cc2c1OC [Example 270, 2-({1-[4-chloro-3-(trifluoromethyl)benzoyl]piperidin-4-yl}methyl)-4-methoxy-N-(2-methoxyethyl)-2H-indazol-5-carboxamide]
xxx (xxx > 100)	xxx (xxx > 100)	33.5	COCCNC(=O)c1ccc2nn(CC3CCN(C(=O)c4ccc(Cl)cc4F)CC3)cc2c1OC [Example 271, 2-{[1-(4-chloro-2-fluorobenzoyl)piperidin-4-yl]methyl}-4-methoxy-N-(2-methoxyethyl)-2H-indazol-5-carboxamide]
xxx (xxx > 100)	xxx (xxx > 100)	23.7	COCCNC(=O)c1ccc2nn(CC3CCN(C(=O)c4ccc(OC(F)(F)F)c(F)c4)CC3)cc2c1OC [Example 272, 2-({1-[3-fluoro-4-(trifluoromethoxy)benzoyl]piperidin-4-yl}methyl)-4-methoxy-N-(2-methoxyethyl)-2H-indazol-5-carboxamide]
xxx (xxx > 100)	xxx (xxx > 100)	18.5	COCCNC(=O)c1ccc2nn(CC3CCN(C(=O)c4cn(C)c5ccccc45)CC3)cc2c1OC [Example 273, 4-methoxy-N-(2-methoxyethyl)-2-({1-[(1-methyl-1H-indol-3-yl)carbonyl]-piperidin-4-yl}methyl)-2H-indazol-5-carboxamide]
xxx (xxx > 100)	xxx (xxx > 100)	44.6	CCOc1c(C(=O)NCCOC)ccc2nn(CC3CCN(C(=O)c4ccc(Cl)cc4)CC3)cc12 [Example 274, 2-{[1-(4-chlorobenzoyl)piperidin-4-yl]methyl}-4-ethoxy-N-(2-methoxyethyl)-2H-indazol-5-carboxamide]
xxx (xxx > 100)	xxx (xxx > 100)	34.5	CCOc1c(C(=O)NCCOC)ccc2nn(CC3CCN(C(=O)c4ccc(S(F)(F)(F)(F)F)cc4)CC3)cc12 [Example 275, 4-ethoxy-N-(2-methoxyethyl)-2-({1-[4-(pentafluoro-λ^6-sulphanyl)benzoyl]-piperidin-4-yl}methyl)-2H-indazol-5-carboxamide]
xx (xx: 10-100)	xx (xx: 10-100)	226	CCOc1c(C(=O)NCCOC)ccc2nn(CC3CN(C(=O)c4ccc(Cl)cc4)C3)cc12 [Example 276, 2-{[1-(4-chlorobenzoyl)azetidin-3-yl]methyl}-4-ethoxy-N-(2-methoxyethyl)-2H-indazol-5-carboxamide]
xxx (xxx > 100)	xxx (xxx > 100)	47.9	CCOc1c(C(=O)NCCOC)ccc2nn(CC3CN(C(=O)c4ccc(S(F)(F)(F)(F)F)cc4)C3)cc12 [Example 277, 4-ethoxy-N-(2-methoxyethyl)-2-({1-[4-(pentafluoro-λ^6-sulphanyl)benzoyl]-azetidin-3-yl}methyl)-2H-indazol-5-carboxamide]
xxx (xxx > 100)	xxx (xxx > 100)	104	Cc1cc2nn(CC3CN(C(=O)c4ccc(Cl)cc4)C3)cc2cc1C(=O)NCCN1CCOCC1 [Example 278, 2-{[1-(4-chlorobenzoyl)azetidin-3-yl]methyl}-6-methyl-N-(2-morpholinoethyl)-2H-indazol-5-carboxamide]
xxx (xxx > 100)	xxx (xxx > 100)	57.4	Cc1cc2nn(CC3CN(C(=O)c4ccc(OC(F)(F)F)cc4)C3)cc2cc1C(=O)NCCN1CCOCC1 [Example 279, 6-methyl-N-(2-morpholinoethyl)-2-({1-[4-(trifluoromethoxy)benzoyl]azetidin-3-yl}methyl)-2H-indazol-5-carboxamide]
